Experimental data: PMC7180948, “New Insights into 4-Anilinoquinazolines as Inhibitors of Cardiac Troponin I–Interacting Kinase (TNNi3K)” (Molecules, 2020)

Legend:
Experiment in all cases: biochemical
Set-up in all cases: KINOMEscan competition binding panel (Eurofins DiscoverX), single concentration, percent inhibition
Conditions in all cases: read-out: 15 at 1 µM % inhibition
YANK2 = target: T1, YANK2 (Homo sapiens, UniProt Q9NY57)
T1 construct: gene STK32B
Outline: (§1)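 KINOMEscan selectivity screen; >400 human kinases; compound at 1 µM, single concentration.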

FLT3(D835H) = FLT3(D835H) (Homo sapiens, UniProt P36888, D835H)
Outline: as §1

CAMKK1 = CAMKK1 (Homo sapiens, UniProt Q8N5S9)
Outline: as §1

GRK3 = GRK3 (Homo sapiens, UniProt P35626)
Chain of GRK3 (P35626 whole entry): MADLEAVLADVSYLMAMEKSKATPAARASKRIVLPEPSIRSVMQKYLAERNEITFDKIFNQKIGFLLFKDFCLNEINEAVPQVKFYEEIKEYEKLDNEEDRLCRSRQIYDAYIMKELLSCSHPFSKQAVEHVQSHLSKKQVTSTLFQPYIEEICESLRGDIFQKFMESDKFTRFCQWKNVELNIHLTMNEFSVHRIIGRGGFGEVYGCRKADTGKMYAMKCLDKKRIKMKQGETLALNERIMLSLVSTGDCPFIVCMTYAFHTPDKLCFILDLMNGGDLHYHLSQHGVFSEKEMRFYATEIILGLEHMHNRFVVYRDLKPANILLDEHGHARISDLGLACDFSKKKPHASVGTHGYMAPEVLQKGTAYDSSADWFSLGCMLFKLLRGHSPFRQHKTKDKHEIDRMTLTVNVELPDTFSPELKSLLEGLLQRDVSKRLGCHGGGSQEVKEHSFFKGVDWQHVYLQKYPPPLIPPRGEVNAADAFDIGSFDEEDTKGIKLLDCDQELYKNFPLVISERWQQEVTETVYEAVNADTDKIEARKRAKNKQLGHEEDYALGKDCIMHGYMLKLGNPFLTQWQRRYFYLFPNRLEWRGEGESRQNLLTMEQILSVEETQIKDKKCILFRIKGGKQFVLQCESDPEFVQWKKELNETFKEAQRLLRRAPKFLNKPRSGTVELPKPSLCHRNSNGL
Outline: as §1

LIMK1 = LIMK1 (Homo sapiens, UniProt P53667)
Outline: as §1

HIPK1 = HIPK1 (Homo sapiens, UniProt Q86Z02)
Chain of HIPK1 (Q86Z02 whole entry): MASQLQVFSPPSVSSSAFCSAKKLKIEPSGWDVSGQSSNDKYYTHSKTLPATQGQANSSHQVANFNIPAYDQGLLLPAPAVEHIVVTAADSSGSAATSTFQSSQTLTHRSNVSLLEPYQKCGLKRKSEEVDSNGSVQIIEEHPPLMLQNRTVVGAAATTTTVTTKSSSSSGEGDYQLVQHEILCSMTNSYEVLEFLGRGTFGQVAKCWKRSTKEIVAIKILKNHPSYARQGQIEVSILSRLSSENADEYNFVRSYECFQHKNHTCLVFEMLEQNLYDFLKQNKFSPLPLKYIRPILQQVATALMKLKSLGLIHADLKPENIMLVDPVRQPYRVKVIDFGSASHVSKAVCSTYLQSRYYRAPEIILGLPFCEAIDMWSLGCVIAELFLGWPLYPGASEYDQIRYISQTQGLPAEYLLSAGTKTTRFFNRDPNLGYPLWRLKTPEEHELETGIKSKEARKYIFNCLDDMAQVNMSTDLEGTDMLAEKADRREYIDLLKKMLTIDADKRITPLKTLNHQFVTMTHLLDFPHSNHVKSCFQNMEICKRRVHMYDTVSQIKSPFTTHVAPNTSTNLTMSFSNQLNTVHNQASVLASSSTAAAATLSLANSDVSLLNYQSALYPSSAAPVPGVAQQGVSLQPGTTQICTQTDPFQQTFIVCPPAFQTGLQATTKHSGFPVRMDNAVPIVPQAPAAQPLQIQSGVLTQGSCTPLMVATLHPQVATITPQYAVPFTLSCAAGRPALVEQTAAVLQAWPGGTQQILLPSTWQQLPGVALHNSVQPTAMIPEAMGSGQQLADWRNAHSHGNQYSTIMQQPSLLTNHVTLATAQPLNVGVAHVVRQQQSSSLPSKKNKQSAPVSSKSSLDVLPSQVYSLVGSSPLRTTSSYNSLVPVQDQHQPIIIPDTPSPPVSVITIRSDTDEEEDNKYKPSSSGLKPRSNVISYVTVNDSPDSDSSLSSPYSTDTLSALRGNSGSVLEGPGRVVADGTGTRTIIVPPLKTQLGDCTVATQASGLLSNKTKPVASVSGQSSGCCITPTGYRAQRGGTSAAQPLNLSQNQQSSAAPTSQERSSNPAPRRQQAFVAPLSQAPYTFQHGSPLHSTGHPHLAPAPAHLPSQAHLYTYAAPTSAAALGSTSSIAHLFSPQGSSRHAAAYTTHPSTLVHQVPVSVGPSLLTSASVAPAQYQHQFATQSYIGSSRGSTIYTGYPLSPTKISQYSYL
Outline: as §1

PIK3CA(H1047Y) = PIK3CA(H1047Y) (Homo sapiens, UniProt P42336, H1047Y)
Outline: as §1

MAP3K4 = MAP3K4 (Homo sapiens, UniProt Q9Y6R4)
Outline: as §1

[1] = target: T2, RSK3(Kin.Dom.1-N-terminal) (Homo sapiens, UniProt Q15349)
T2 construct: gene RPS6KA2; Kin.Dom.1-N-terminal
T2 sequence (Q15349 whole entry): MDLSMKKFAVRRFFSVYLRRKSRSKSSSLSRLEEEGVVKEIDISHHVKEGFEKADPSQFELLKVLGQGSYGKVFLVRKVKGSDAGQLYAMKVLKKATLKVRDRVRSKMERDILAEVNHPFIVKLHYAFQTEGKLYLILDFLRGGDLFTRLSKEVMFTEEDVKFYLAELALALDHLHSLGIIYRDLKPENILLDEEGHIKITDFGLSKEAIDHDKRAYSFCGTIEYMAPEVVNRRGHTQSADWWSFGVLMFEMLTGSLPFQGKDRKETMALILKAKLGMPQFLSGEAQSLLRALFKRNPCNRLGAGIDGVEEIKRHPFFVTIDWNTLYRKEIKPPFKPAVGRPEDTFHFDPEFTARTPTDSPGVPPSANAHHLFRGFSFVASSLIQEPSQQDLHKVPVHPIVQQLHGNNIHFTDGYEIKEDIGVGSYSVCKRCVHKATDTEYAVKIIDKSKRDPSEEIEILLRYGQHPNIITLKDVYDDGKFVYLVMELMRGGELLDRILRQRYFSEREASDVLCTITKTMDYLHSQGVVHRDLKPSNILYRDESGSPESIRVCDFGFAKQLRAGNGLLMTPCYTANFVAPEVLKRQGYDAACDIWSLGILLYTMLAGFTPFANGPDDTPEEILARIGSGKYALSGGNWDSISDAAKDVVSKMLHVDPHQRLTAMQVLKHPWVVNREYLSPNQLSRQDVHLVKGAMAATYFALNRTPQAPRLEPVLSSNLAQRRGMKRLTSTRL
Outline: as §1

PIKFYVE = PIKFYVE (Homo sapiens, UniProt Q9Y2I7)
Outline: as §1

RIPK2 = RIPK2 (Homo sapiens, UniProt O43353)
Chain of RIPK2 (O43353 whole entry): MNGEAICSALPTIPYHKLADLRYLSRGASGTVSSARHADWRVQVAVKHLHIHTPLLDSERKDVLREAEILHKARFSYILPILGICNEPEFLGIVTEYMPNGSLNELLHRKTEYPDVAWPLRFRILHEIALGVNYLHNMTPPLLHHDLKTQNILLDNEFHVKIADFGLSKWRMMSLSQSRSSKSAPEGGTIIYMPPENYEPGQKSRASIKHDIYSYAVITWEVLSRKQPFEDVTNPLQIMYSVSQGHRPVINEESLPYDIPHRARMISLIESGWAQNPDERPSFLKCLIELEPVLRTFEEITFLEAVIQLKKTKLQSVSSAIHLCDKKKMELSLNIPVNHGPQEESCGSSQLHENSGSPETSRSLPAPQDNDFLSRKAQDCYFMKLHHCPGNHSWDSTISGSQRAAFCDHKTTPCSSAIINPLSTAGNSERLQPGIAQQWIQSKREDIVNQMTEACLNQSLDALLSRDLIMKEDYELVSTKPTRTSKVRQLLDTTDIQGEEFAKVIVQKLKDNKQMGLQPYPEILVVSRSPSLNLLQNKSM
Outline: as §1

NDR1 = target: T3, NDR1 (Homo sapiens, UniProt Q15208)
T3 construct: gene STK38
Outline: as §1

DDR1 = DDR1 (Homo sapiens, UniProt Q08345)
Outline: as §1

CDK11 = target: T4, CDK11 (Homo sapiens, UniProt Q9BWU1)
T4 construct: gene CDK19
T4 sequence (Q9BWU1 whole entry): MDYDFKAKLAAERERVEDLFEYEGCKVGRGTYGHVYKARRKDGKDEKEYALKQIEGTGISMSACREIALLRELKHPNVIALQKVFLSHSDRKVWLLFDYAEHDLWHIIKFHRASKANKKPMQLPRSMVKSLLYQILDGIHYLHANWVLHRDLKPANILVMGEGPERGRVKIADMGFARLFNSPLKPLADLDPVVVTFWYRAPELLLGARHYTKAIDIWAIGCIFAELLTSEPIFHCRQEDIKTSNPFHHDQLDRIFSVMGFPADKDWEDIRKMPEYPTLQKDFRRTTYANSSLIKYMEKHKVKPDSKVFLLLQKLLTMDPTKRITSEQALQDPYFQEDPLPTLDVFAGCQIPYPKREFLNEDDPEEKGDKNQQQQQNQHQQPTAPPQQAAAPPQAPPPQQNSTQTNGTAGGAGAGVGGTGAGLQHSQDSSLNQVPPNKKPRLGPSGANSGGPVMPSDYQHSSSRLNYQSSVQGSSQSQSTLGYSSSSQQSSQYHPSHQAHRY
Outline: as §1

MKNK2 = MKNK2 (Homo sapiens, UniProt Q9HBH9)
Outline: as §1

[2] = target: T5, ABL1(T315I)-phosphorylated (Homo sapiens, UniProt P00519, T315I)
T5 construct: phosphorylated
Outline: as §1

MLK1 = target: T6, MLK1 (Homo sapiens, UniProt P80192)
T6 construct: gene MAP3K9
Outline: as §1

PRKCQ = PRKCQ (Homo sapiens, UniProt Q04759)
Outline: as §1

PLK3 = PLK3 (Homo sapiens, UniProt Q9H4B4)
Outline: as §1

PLK2 = PLK2 (Homo sapiens, UniProt Q9NYY3)
Outline: as §1

FLT3-autoinhibited = FLT3-autoinhibited (Homo sapiens, UniProt P36888)
Outline: as §1

CDK5 = CDK5 (Homo sapiens, UniProt Q00535)
Outline: as §1

PRKD1 = PRKD1 (Homo sapiens, UniProt Q15139)
Outline: as §1

HASPIN = HASPIN (Homo sapiens, UniProt Q8TF76)
Chain of HASPIN (Q8TF76 whole entry): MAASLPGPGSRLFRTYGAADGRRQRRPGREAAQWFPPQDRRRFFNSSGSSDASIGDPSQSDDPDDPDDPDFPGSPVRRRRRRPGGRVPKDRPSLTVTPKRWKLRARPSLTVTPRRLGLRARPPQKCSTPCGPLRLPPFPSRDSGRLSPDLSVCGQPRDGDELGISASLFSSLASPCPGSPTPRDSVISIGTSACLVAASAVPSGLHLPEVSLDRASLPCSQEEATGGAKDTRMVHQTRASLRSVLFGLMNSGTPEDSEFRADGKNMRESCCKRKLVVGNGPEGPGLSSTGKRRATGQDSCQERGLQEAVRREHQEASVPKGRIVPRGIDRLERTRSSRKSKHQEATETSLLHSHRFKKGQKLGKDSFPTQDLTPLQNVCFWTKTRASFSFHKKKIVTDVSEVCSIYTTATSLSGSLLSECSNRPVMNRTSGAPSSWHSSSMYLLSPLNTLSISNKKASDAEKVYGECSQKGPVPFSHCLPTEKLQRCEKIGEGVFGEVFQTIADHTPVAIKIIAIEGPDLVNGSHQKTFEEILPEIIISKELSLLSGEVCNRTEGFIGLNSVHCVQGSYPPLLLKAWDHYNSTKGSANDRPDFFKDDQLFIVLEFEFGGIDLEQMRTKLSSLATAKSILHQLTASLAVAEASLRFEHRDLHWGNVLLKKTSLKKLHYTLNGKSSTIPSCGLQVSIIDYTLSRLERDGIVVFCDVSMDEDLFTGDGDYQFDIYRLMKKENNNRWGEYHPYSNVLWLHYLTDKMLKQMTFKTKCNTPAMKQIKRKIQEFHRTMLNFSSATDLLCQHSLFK
Outline: as §1

T1 sequence (Q9NY57 whole entry): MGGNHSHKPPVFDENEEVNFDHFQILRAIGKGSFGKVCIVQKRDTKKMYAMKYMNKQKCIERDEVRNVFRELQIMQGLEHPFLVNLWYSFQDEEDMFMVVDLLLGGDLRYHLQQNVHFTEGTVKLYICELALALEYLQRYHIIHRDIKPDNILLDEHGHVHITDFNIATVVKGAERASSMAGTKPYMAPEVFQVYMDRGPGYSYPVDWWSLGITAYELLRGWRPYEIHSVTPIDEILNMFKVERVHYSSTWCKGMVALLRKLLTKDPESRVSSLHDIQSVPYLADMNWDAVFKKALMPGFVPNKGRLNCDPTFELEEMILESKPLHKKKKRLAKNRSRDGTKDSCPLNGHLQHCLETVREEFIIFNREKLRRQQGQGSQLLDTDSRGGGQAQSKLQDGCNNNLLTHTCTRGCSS

- inhibition at 1 µM (YANK2): 0%
- inhibition at 1 µM (FLT3(D835H)): 10%
- inhibition at 1 µM (CAMKK1): 2%
- inhibition at 1 µM (GRK3): 32%
- inhibition at 1 µM (LIMK1): 0%
- inhibition at 1 µM (HIPK1): 7%
- inhibition at 1 µM (PIK3CA(H1047Y)): 21%
- inhibition at 1 µM (MAP3K4): 0%
- inhibition at 1 µM [1]: 11%
- inhibition at 1 µM (PIKFYVE): 13%
- inhibition at 1 µM (RIPK2): 4%
- inhibition at 1 µM (NDR1): 13%
- inhibition at 1 µM (DDR1): 0%
- inhibition at 1 µM (CDK11): 13%
- inhibition at 1 µM (MKNK2): 38%
- inhibition at 1 µM [2]: 0%
- inhibition at 1 µM (MLK1): 0%
- inhibition at 1 µM (PRKCQ): 16%
- inhibition at 1 µM (PLK3): 8%
- inhibition at 1 µM (PLK2): 23%
- inhibition at 1 µM (FLT3-autoinhibited): 0%
- inhibition at 1 µM (CDK5): 3%
- inhibition at 1 µM (PRKD1): 15%
- inhibition at 1 µM (HASPIN): 0%
Compound: CNS(=O)(=O)c1ccc(N(C)C)c(Nc2nc(C)nc3cc(OC)c(OC)cc23)c1 [compound 15, 3-((6,7-dimethoxy-2-methylquinazolin-4-yl)amino)-4-(dimethylamino)-N-methylbenzenesulfonamide]
